Data as given in patent publication US20250221944A1, “COMPOSITION FOR PREVENTING OR TREATING MULTIPLE MYELOMA COMPRISING NOVEL CHROMANON COMPOUND AS ACTIVE INGREDIENT” (KBLUEBIO INC, priority 2022, published 2025).

Key:
[1] = initial acute toxicity evaluation (liver, kidney, cardiac markers); assay type: in vivo; conditions: rats, 5 mg/kg intravenously (femoral vein), blood 3 hours later
Method: As an initial toxicity evaluation of KBB-NX series synthetic compounds, KBB-NX-16 and KBB-NX-20 were injected intravenously into the femoral vein of rats at a dose of 5 mg/kg and blood was collected 3 hours later to test for markers of liver toxicity (marker ALT), nephrotoxicity (BUN, creatinine) and cardiotoxicity (CK-MB, myoglobin).

[2] = system: RPMI8226-GFP-FLUC cells; assay: mouse model of multiple myeloma (RPMI8226-GFP-FLUC, tail vein); assay type: in vivo, NSG mice; conditions: 5 mg/kg intravenously, 2 days per week for 3 cycles, untreated group all died on day 50
Method: A total of 12 male NSG (NOD scid gamma) mice were used. The animals were housed in a semi-specific pathogen free (Semi-SPF) animal house at the Chonnam National University Center for Biomedical Science Convergence at a temperature of 20-24° C., humidity of 40-60%, and a 12-hour light/dark cycle, with 5 animals per cage. Sterile water and feed were provided ad libitum, and all experimental procedures were in accordance with the Animal welfare act and approved by the Institutional Animal Care and Use Committee of Chonnam National University (Approval No.: CNU IACUC-H-2020-36). […]
Mice were injected with RPMI8226-GFP-FLUC cells, and 8 days later, cancer formation was determined using an in vivo imaging system (IVIS) (NightOWL II LB983 NC100, Berthold, Germany). […]
Meanwhile, a multiple myeloma cell line (RPMI8226) was transfected with a puromycin resistance gene and a luciferase-GFP gene using a lentiviral vector at the EF1a promoter site, and the dynamics of MM cells in mice were identified and monitored by an in vivo bioluminescence imaging assay (FIG. 28). The transgenic multiple myeloma cell line, which can be monitored in vivo, was injected 1×10^7 cells/ml through the tail vein of 6-11 week old combined immunodeficient NSG mice to establish a mouse model of multiple myeloma. […]

Row | Structure (SMILES) | cardiotoxicity (CK-MB, myoglobin) [1] | hepatotoxicity (marker ALT) [1] | nephrotoxicity (BUN, creatinine) [1] | survival after transplantation [2] [days]
1 | COc1cc(O)c(CC=C(C)C)c2c1C(=O)CC(c1ccc(C(C)C)cc1)O2 (centres unmarked) [KBB-NX-16, 7-hydroxy-2-(4-isopropylphenyl)-5-methoxy-8-(3-methylbut-2-en-1-yl)chroman-4-one] | did not exhibit significant | did not exhibit significant | did not exhibit significant | –
2 | COc1cc(O)cc2c1C(=O)CC(c1ccc(C)s1)O2 (centres unmarked) [KBB-NX-20, 7-hydroxy-5-methoxy-2-(5-methylthiophene-2-yl)chroman-4-one] | did not exhibit significant | did not exhibit significant | did not exhibit significant | –
3 | Nc1cccc2c1CN(C1CCC(=O)NC1=O)C2=O (centres unmarked) [lenalidomide, 3-(4-amino-1-oxoisoindolin-2-yl)piperidine-2,6-dione, reference compound] | – | – | – | 64
4 | COc1cc(O)cc(O)c1C(=O)/C=C/c1ccc(O)cc1 [KBB-NX-2, (E)-1-(2,4-dihydroxy-6-methoxyphenyl)-3-(4-hydroxyphenyl)prop-2-en-1-one] | – | – | – | 64
